Assays:
Settings in all cases: human; call rule not given here
Hepatotoxicity [1] = assay: FDA HLAED, serum glutamic pyruvic transaminase (SGPT) increase
Hepatotoxicity [2] = assay: FDA HLAED, alkaline phosphatase increase
Hepatotoxicity [3] = assay: FDA HLAED, liver enzyme composite activity
Hepatotoxicity [4] = assay: FDA HLAED, serum glutamic oxaloacetic transaminase (SGOT) increase
Hepatotoxicity [5] = assay: FDA HLAED, lactate dehydrogenase (LDH) increase
Hepatotoxicity [6] = assay: FDA HLAED, gamma-glutamyl transferase (GGT) increase
Wherever GGT Increase - Index Value is given: reference of the scale not given here.
Wherever LDH Increase - Index Value is given: reference of the scale not given here.

Row | Structure (SMILES) | SGPT Increase - Activity Score (Hepatotoxicity [1]) | SGPT Increase - Index Value (Hepatotoxicity [1]) | SGPT Increase - Number of Reports (Hepatotoxicity [1]) | Alkaline Phosphatase Increase - Activity Score (Hepatotoxicity [2]) | Alkaline Phosphatase Increase - Index Value (Hepatotoxicity [2]) | Alkaline Phosphatase Increase - Number of Reports (Hepatotoxicity [2]) | Composite Activity - Active (Hepatotoxicity [3]) | Composite Activity - Marginal (Hepatotoxicity [3]) | Composite Activity - Score (Hepatotoxicity [3]) | SGOT Increase - Activity Score (Hepatotoxicity [4]) | SGOT Increase - Index Value (Hepatotoxicity [4]) | SGOT Increase - Number of Reports (Hepatotoxicity [4]) | LDH Increase - Activity Score (Hepatotoxicity [5]) | LDH Increase - Index Value (Hepatotoxicity [5]) | LDH Increase - Number of Reports (Hepatotoxicity [5]) | GGT Increase - Activity Score (Hepatotoxicity [6]) | GGT Increase - Index Value (Hepatotoxicity [6]) | GGT Increase - Number of Reports (Hepatotoxicity [6]) | also measured
1 | CN1CCCC(n2nc(Cc3ccc(Cl)cc3)c3ccccc3c2=O)CC1 (configuration not stated) [AZELASTINE] | Inactive | 0 | < 4 | Inactive | 0 | < 4 | 0 | 0 | Inactive | Inactive | 0 | < 4 | Inactive | 0 | < 4 | Inactive | 0 | < 4 | –
2 | CC[C@H]1OC(=O)[C@H](C)[C@@H](O[C@H]2C[C@@](C)(OC)[C@@H](O)[C@H](C)O2)[C@H](C)[C@@H](O[C@@H]2O[C@H](C)C[C@H](N(C)C)[C@H]2O)[C@](C)(O)C[C@@H](C)CN(C)[C@H](C)[C@@H](O)[C@]1(C)O [AZITHROMYCIN] | Inactive | 2.3 | >= 4 | Inactive | 1 | >= 4 | 0 | 0 | Inactive | Inactive | 2.9 | >= 4 | Inactive | 0.8 | >= 4 | Inactive | 1 | >= 4 | –
3 | C[C@H]1[C@H](NC(=O)/C(=N\OC(C)(C)C(=O)O)c2csc(N)n2)C(=O)N1S(=O)(=O)O [AZTREONAM] | Marginally Active | 3.8 | >= 4 | Active | 6.9 | >= 4 | 1 | 2 | Inactive | Marginally Active | 3.2 | >= 4 | Inactive | 0.6 | < 4 | Inactive | 0.6 | < 4 | –
4 | CCOC(=O)OC(C)OC(=O)[C@@H]1N2C(=O)[C@@H](NC(=O)[C@H](N)c3ccccc3)[C@H]2SC1(C)C (some centres not stated) [BACAMPICILLIN] | Inactive | 0 | < 4 | Inactive | 0 | < 4 | 0 | 0 | Inactive | Inactive | 0 | < 4 | Inactive | 0 | < 4 | Inactive | 0 | < 4 | –
5 | C[C@H]1C[C@H]2[C@@H]3CCC4=CC(=O)C=C[C@]4(C)[C@@]3(Cl)[C@@H](O)C[C@]2(C)[C@@]1(O)C(=O)CO [BECLOMETHASONE] | Inactive | 0 | < 4 | Inactive | 0 | < 4 | 0 | 0 | Inactive | Inactive | 0 | < 4 | Inactive | 0 | < 4 | Inactive | 0 | < 4 | –
6 | CCOC(=O)[C@H](CCc1ccccc1)N[C@H]1CCc2ccccc2N(CC(=O)O)C1=O [BENAZEPRIL] | Inactive | 0 | < 4 | Inactive | 0.3 | < 4 | 0 | 0 | Inactive | Inactive | 0 | < 4 | Inactive | 0.2 | < 4 | Inactive | 0.2 | < 4 | –
7 | CC(C)COCC(CN(Cc1ccccc1)c1ccccc1)N1CCCC1 (configuration not stated) [BEPRIDIL] | Inactive | 0 | < 4 | Inactive | 0 | < 4 | 0 | 0 | Inactive | Inactive | 0 | < 4 | Inactive | 27.1 | < 4 | Inactive | 0 | < 4 | –
8 | CC(C)NCC(O)COc1ccc(CCOCC2CC2)cc1 (configuration not stated) [BETAXOLOL] | Inactive | 0 | < 4 | Inactive | 0 | < 4 | – | – | – | Inactive | 0 | < 4 | Inactive | 0 | < 4 | Inactive | 0 | < 4 | Composite Activity - Active (Hepatotoxicity [3]; Liver): 0; Composite Activity - Marginal (Hepatotoxicity [3]; Liver): 0; Composite Activity - Score (Hepatotoxicity [3]; Liver): Inactive
9 | CC(O)(CS(=O)(=O)c1ccc(F)cc1)C(=O)Nc1ccc(C#N)c(C(F)(F)F)c1 (configuration not stated) [BICALUTAMIDE] | Active | 11.9 | >= 4 | Active | 8.5 | >= 4 | 3 | 0 | Active | Active | 13.6 | >= 4 | Inactive | 5.1 | < 4 | Inactive | 1.7 | < 4 | –

Source: ChEMBL document CHEMBL1697781, “Assessment of the health effects of chemicals in humans: II. Construction of an adverse effects database for QSAR modeling” (Curr Drug Discov Technol, 2004)
